Measured values as given in PubChem BioAssay (NCI).
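All cell lines were grown in 96-well plates and treated with compound for 48 hours. TGI marks complete inhibition of growth.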

Key:
Test in all cases: NCI anticancer screen, dose series, 48 h
SF-295 CNS = test system: SF-295 CNS
IGROV1 ovarian = test system: IGROV1 ovarian
HCT-116 colon = test system: HCT-116 colon
786-0 renal = test system: 786-0 renal
DMS 114 small cell lung = test system: DMS 114 small cell lung
RXF-631 renal = test system: RXF-631 renal
UACC-62 melanoma = test system: UACC-62 melanoma
NCI-H226 lung = test system: NCI-H226 lung
EKVX NSCLC = test system: EKVX NSCLC
HCC-2998 colon = test system: HCC-2998 colon
MOLT-4 leukemia = test system: MOLT-4 leukemia
SNB-75 CNS = test system: SNB-75 CNS
HT29 colon = test system: HT29 colon
SW-620 colon = test system: SW-620 colon
K-562 leukemia = test system: K-562 leukemia
SK-MEL-5 melanoma = test system: SK-MEL-5 melanoma
SK-MEL-28 melanoma = test system: SK-MEL-28 melanoma
LXFL 529 NSCLC = test system: LXFL 529 NSCLC
HOP-62 NSCLC = test system: HOP-62 NSCLC
UACC-257 melanoma = test system: UACC-257 melanoma
NCI-H460 lung = test system: NCI-H460 lung
OVCAR-3 ovarian = test system: OVCAR-3 ovarian
OVCAR-4 ovarian = test system: OVCAR-4 ovarian
KM20L2 colon = test system: KM20L2 colon
XF 498 CNS = test system: XF 498 CNS
A549 NSCLC = test system: A549 NSCLC
LOX IMVI melanoma = test system: LOX IMVI melanoma
SK-MEL-2 melanoma = test system: SK-MEL-2 melanoma
HL-60(TB) leukemia = test system: HL-60(TB) leukemia
RXF 393 renal = test system: RXF 393 renal
SF-268 CNS = test system: SF-268 CNS
DMS 273 small cell lung = test system: DMS 273 small cell lung
UO-31 renal = test system: UO-31 renal
SN12C renal = test system: SN12C renal
TK-10 renal = test system: TK-10 renal
A498 renal = test system: A498 renal
MALME-3M melanoma = test system: MALME-3M melanoma
U251 CNS = test system: U251 CNS
SF-539 CNS = test system: SF-539 CNS
RPMI-8226 leukemia = test system: RPMI-8226 leukemia
M19-MEL melanoma = test system: M19-MEL melanoma
ACHN renal = test system: ACHN renal
M14 melanoma = test system: M14 melanoma
SR leukemia = test system: SR leukemia
NCI-H23 lung = test system: NCI-H23 lung
SNB-19 CNS = test system: SNB-19 CNS
DLD-1 colon = test system: DLD-1 colon
COLO 205 colon = test system: COLO 205 colon
HCT-15 colon = test system: HCT-15 colon
OVCAR-8 ovarian = test system: OVCAR-8 ovarian
CCRF-CEM leukemia = test system: CCRF-CEM leukemia
HOP-18 NSCLC = test system: HOP-18 NSCLC
NCI-H522 lung = test system: NCI-H522 lung
KM12 colon = test system: KM12 colon
CAKI-1 renal = test system: CAKI-1 renal
HOP-92 NSCLC = test system: HOP-92 NSCLC
OVCAR-5 ovarian = test system: OVCAR-5 ovarian
SNB-78 CNS = test system: SNB-78 CNS

CCOC(=O)C(C)(C)Oc1ccc2c(=O)cc(-c3ccc(Cl)cc3)oc2c1
TGI (SF-295 CNS): > 100 µM | TGI (IGROV1 ovarian): > 100 µM | TGI (HCT-116 colon): > 100 µM | TGI (786-0 renal): > 100 µM | TGI (DMS 114 small cell lung): > 100 µM | TGI (RXF-631 renal): > 100 µM | TGI (UACC-62 melanoma): > 100 µM | TGI (NCI-H226 lung): > 100 µM | TGI (EKVX NSCLC): > 100 µM | TGI (HCC-2998 colon): > 100 µM | TGI (MOLT-4 leukemia): > 100 µM | TGI (SNB-75 CNS): > 100 µM | TGI (HT29 colon): > 100 µM | TGI (SW-620 colon): > 100 µM | TGI (K-562 leukemia): > 100 µM | TGI (SK-MEL-5 melanoma): > 100 µM | TGI (SK-MEL-28 melanoma): > 100 µM | TGI (LXFL 529 NSCLC): > 100 µM | TGI (HOP-62 NSCLC): > 100 µM | TGI (UACC-257 melanoma): > 100 µM | TGI (NCI-H460 lung): > 100 µM | TGI (OVCAR-3 ovarian): > 100 µM | TGI (OVCAR-4 ovarian): > 100 µM | TGI (KM20L2 colon): > 100 µM | TGI (XF 498 CNS): > 100 µM | TGI (A549 NSCLC): > 100 µM | TGI (LOX IMVI melanoma): > 100 µM | TGI (SK-MEL-2 melanoma): > 100 µM | TGI (HL-60(TB) leukemia): > 100 µM | TGI (RXF 393 renal): > 100 µM | TGI (SF-268 CNS): > 100 µM | TGI (DMS 273 small cell lung): > 100 µM | TGI (UO-31 renal): > 100 µM | TGI (SN12C renal): > 100 µM | TGI (TK-10 renal): > 100 µM | TGI (A498 renal): > 100 µM | TGI (MALME-3M melanoma): > 100 µM | TGI (U251 CNS): > 100 µM | TGI (SF-539 CNS): > 100 µM | TGI (RPMI-8226 leukemia): > 100 µM | TGI (M19-MEL melanoma): > 100 µM | TGI (ACHN renal): > 100 µM | TGI (M14 melanoma): > 100 µM | TGI (SR leukemia): > 100 µM | TGI (NCI-H23 lung): > 100 µM | TGI (SNB-19 CNS): > 100 µM | TGI (DLD-1 colon): > 100 µM | TGI (COLO 205 colon): > 100 µM | TGI (HCT-15 colon): > 100 µM | TGI (OVCAR-8 ovarian): > 100 µM | TGI (CCRF-CEM leukemia): > 100 µM

CCN(CC)CCC1CC/C(=C\c2ccc(OC)cc2)C1=O (stereo unspecified)
TGI (HOP-18 NSCLC): > 100 µM | TGI (SF-295 CNS): > 100 µM | TGI (IGROV1 ovarian): > 100 µM | TGI (HCT-116 colon): > 100 µM | TGI (786-0 renal): > 100 µM | TGI (DMS 114 small cell lung): > 100 µM | TGI (UACC-62 melanoma): 34.7 µM | TGI (NCI-H522 lung): > 100 µM | TGI (NCI-H226 lung): > 100 µM | TGI (EKVX NSCLC): > 100 µM | TGI (KM12 colon): > 100 µM | TGI (HCC-2998 colon): > 100 µM | TGI (MOLT-4 leukemia): > 100 µM | TGI (SNB-75 CNS): > 100 µM | TGI (HT29 colon): > 100 µM | TGI (SW-620 colon): > 100 µM | TGI (K-562 leukemia): > 100 µM | TGI (SK-MEL-5 melanoma): 44 µM | TGI (SK-MEL-28 melanoma): > 100 µM | TGI (LXFL 529 NSCLC): > 100 µM | TGI (HOP-62 NSCLC): > 100 µM | TGI (UACC-257 melanoma): 77.6 µM | TGI (OVCAR-3 ovarian): > 100 µM | TGI (OVCAR-4 ovarian): > 100 µM | TGI (KM20L2 colon): 78.3 µM | TGI (XF 498 CNS): > 100 µM | TGI (A549 NSCLC): > 100 µM | TGI (LOX IMVI melanoma): > 100 µM | TGI (SK-MEL-2 melanoma): > 100 µM | TGI (HL-60(TB) leukemia): > 100 µM | TGI (RXF 393 renal): > 100 µM | TGI (SF-268 CNS): > 100 µM | TGI (DMS 273 small cell lung): > 100 µM | TGI (UO-31 renal): > 100 µM | TGI (SN12C renal): > 100 µM | TGI (TK-10 renal): > 100 µM | TGI (A498 renal): > 100 µM | TGI (MALME-3M melanoma): > 100 µM | TGI (U251 CNS): > 100 µM | TGI (SF-539 CNS): > 100 µM | TGI (RPMI-8226 leukemia): > 100 µM | TGI (M19-MEL melanoma): > 100 µM | TGI (ACHN renal): > 100 µM | TGI (CAKI-1 renal): > 100 µM | TGI (M14 melanoma): > 100 µM | TGI (SR leukemia): > 100 µM | TGI (HOP-92 NSCLC): > 100 µM | TGI (OVCAR-5 ovarian): > 100 µM | TGI (SNB-19 CNS): > 100 µM | TGI (DLD-1 colon): > 100 µM | TGI (COLO 205 colon): 38.9 µM | TGI (HCT-15 colon): > 100 µM | TGI (SNB-78 CNS): > 100 µM | TGI (OVCAR-8 ovarian): > 100 µM | TGI (CCRF-CEM leukemia): > 100 µM
